Values quoted from earlier work, collected in article PMC6311893, “Computational prediction of plasma protein binding of cyclic peptides from small molecule experimental data using sparse modeling techniques” (BMC Bioinformatics, 2018).

Test system: plasma protein
Conditions: fraction bound to plasma protein; small molecule dataset, sheet 1-SM (Set Dte = test, Dtr = training); ref Ingle et al.; cited from earlier work

Question: With `Cc1nnc(SCC2=C(C(=O)O)N3C(=O)[C@@H](NC(=O)Cn4cnnn4)[C@H]3SC2)s1` [Cefazolin] as the molecule, how does the “PPB (fb)” value read?
Answer: 0.83

Question: Which “PPB (fb)” value does the source give for `CC(c1cc2ccccc2s1)N(O)C(N)=O` (stereo not drawn) [zileuton] here?
Answer: 0.93

Question: For `O=C(O)[C@H]1O[C@@H](Oc2cc3oc(-c4ccccc4)cc(=O)c3c(O)c2O)[C@H](O)[C@@H](O)[C@@H]1O` [baicalin], which “PPB (fb)” value is on record?
Answer: 0.66

Question: Which “PPB (fb)” value does the source give for `O=C(O)[C@H]1/C(=C/CO)O[C@@H]2CC(=O)N21` [clavulanate] here?
Answer: 0.23

Question: For `NS(=O)(=O)c1cc2c(cc1Cl)N=CNS2(=O)=O` [chlorothiazide], which “PPB (fb)” value is on record?
Answer: 0.7

Question: Which “PPB (fb)” value does the source give for `CCn1nc(C(=O)O)c(=O)c2cc3c(cc21)OCO3` [cinoxacin] here?
Answer: 0.64

Question: For `CCCN1CCN(c2cc3c(cc2F)c(=O)c(C(=O)O)cn3-c2ccc(OC)cc2)CC1` [5cc (p-OCH3__ N- C3H7], which “PPB (fb)” value is on record?
Answer: 0.54

Question: Which “PPB (fb)” value does the source give for `O=P(O)(O)C(Cl)(Cl)P(=O)(O)O` [clodronic acid] here?
Answer: 0.36

Question: With `O=C(O)Cc1ccccc1Nc1c(Cl)cccc1Cl` [Diclofenac] as the molecule, how does the “PPB (fb)” value read?
Answer: 0.995

Question: For `CC1(C)SC2C(NC(=O)C(F)c3cccc(N)c3)C(=O)N2C1C(=O)O` (stereo not drawn) [penicillin30], which “PPB (fb)” value is on record?
Answer: 0.26

Question: For `COc1cc(N)c(Cl)cc1C(=O)NC1CCN(CCCOc2ccc(F)cc2)CC1OC` (stereo not drawn) [cisapride], which “PPB (fb)” value is on record?
Answer: 0.98

Question: For `O=C1c2c(O)ccc(O)c2C(=O)c2c(NCCNCCO)ccc(NCCNCCO)c21` [Mitoxantrone], which “PPB (fb)” value is on record?
Answer: 0.8

Same assay, conditions: fraction bound to plasma protein; small molecule dataset, sheet 1-SM, Set Dtr; ref Ingle et al.; cited from earlier work

Question: For `CCC(=O)O[C@]1(C(=O)SCF)[C@H](C)C[C@H]2[C@@H]3C[C@H](F)C4=CC(=O)C=C[C@]4(C)[C@@]3(F)[C@@H](O)C[C@@]21C` [Fluticasone propionate], which “PPB (fb)” value is on record?
Answer: 0.89

Question: Which “PPB (fb)” value does the source give for `Cc1[nH]c(=O)c(C#N)cc1-c1ccncc1` [Milrinone] here?
Answer: 0.85

Question: With `CCN(CC)CCNC(=O)c1ccc(NC(C)=O)cc1` [Acecainide (N-acetylprocainamide)] as the molecule, how does the “PPB (fb)” value read?
Answer: 0.1

Question: For `CCc1nc(N)nc(N)c1-c1ccc(Cl)cc1` [Pyrimethamine], which “PPB (fb)” value is on record?
Answer: 0.89

Question: For `CSc1ccc(C(=O)c2[nH]c(=O)[nH]c2C)cc1` [Fenoximone], which “PPB (fb)” value is on record?
Answer: 0.74

Question: Which “PPB (fb)” value does the source give for `CN(C)CCOc1ccc(/C(=C(/CCCl)c2ccccc2)c2ccccc2)cc1` [toremifene] here?
Answer: 0.99

Question: With `CNCCCN1c2ccccc2CCc2ccccc21` [Desipramine] as the molecule, how does the “PPB (fb)” value read?
Answer: 0.85

Question: Which “PPB (fb)” value does the source give for `CC(C)(C)NC(=O)[C@H]1CC[C@H]2[C@@H]3CC=C4C=C(C(=O)O)CC[C@]4(C)[C@H]3CC[C@]12C` [Epristeride] here?
Answer: 0.97

Same assay, conditions: fraction bound to plasma protein; small molecule dataset, sheet 1-SM; ref Ingle et al.; cited from earlier work

Question: With `CN1CCN(CCCN2c3ccccc3Sc3ccccc32)CC1` [perazine] as the molecule, how does the “PPB (fb)” value read?
Answer: 0.95

Question: Which “PPB (fb)” value does the source give for `O=C1NC(c2ccccc2)(c2ccccc2)C(=O)N1COP(=O)(O)O` [fosphenytoin] here?
Answer: 0.95

Question: For `COC(CC(=O)NC1C(=O)N2C1SC(C)(C)C2C(=O)O)c1cccs1` (stereo not drawn) [penicillin73], which “PPB (fb)” value is on record?
Answer: 0.59

Question: With `COc1c(C)c2c(c(O)c1C/C=C(\C)CCC(=O)OCCN1CCOCC1)C(=O)OC2` [Mycophenolate mofetil] as the molecule, how does the “PPB (fb)” value read?
Answer: 0.97

Question: With `CC(C)Cc1ccc(C(C)C(=O)NCCCN(C)C)cc1` (stereo not drawn) [JMC_07] as the molecule, how does the “PPB (fb)” value read?
Answer: 0.75

Question: With `Nc1nnc(-c2cccc(Cl)c2Cl)c(N)n1` [lamotrigine] as the molecule, how does the “PPB (fb)” value read?
Answer: 0.55

Question: For `CCOc1cnc2ccccc2c1C(=O)NC1C(=O)N2C1SC(C)(C)C2C(=O)O` (stereo not drawn) [penicillin78], which “PPB (fb)” value is on record?
Answer: 0.7

Question: For `O=C(C1CCCCC1)N1CC(=O)N2CCc3ccccc3C2C1` (stereo not drawn) [praziquantel], which “PPB (fb)” value is on record?
Answer: 0.83

Question: For `CCCN(CC)C(CC)C(=O)Nc1c(C)cccc1C` (stereo not drawn) [etidocaine], which “PPB (fb)” value is on record?
Answer: 0.94

Question: For `Oc1ccc(C2CNCCc3c2cc(O)c(O)c3Cl)cc1` (stereo not drawn) [fenoldopam], which “PPB (fb)” value is on record?
Answer: 0.88

Same assay, conditions: plasma; cited from earlier work

Question: Which “PPB (fb)” value does the source give for `COc1cc(CC2c3c(cc(OC)c(OC)c3OC)CC[N+]2(C)CCCOC(=O)CCC(=O)OCCC[N+]2(C)CCc3cc(OC)c(OC)c(OC)c3C2Cc2cc(OC)c(OC)c(OC)c2)cc(OC)c1OC` (stereo not drawn) [Doxacurium] here?
Answer: 0.39

Question: Which “PPB (fb)” value does the source give for `C[C@]12COC(=O)C[C@@H]1CC[C@@H]1[C@@H]2CC[C@@]2(C)[C@H]1CC[C@]2(C)O` [oxandrolone] here?
Answer: 0.95

Question: Which “PPB (fb)” value does the source give for `CCOC(=O)C1(c2ccccc2)CCN(C)CC1` [Meperidine] here?
Answer: 0.58
